pIC50: −log10 of the molar value. Like-named read-outs stand apart in the source and are kept apart here.
What was measured:
[1] = biological target: T1, human CB1 receptor (Homo sapiens, UniProt P21554); assay: CB1 radioligand competitive binding assay ([3H]CP 55,940 displacement)
T1 construct: host or cells: CHO-K1

[2] = biological target: T2, human CB2 receptor (Homo sapiens, UniProt P34972); assay: CB2 radioligand competitive binding assay ([3H]CP 55,940 displacement); settings: for Selectivity CB2: fold difference in selectivity between CB1 and CB2 binding, in the column of the receptor with the higher binding affinity
T2 construct: host or cells: CHO-K1
T2 sequence (P34972 whole entry): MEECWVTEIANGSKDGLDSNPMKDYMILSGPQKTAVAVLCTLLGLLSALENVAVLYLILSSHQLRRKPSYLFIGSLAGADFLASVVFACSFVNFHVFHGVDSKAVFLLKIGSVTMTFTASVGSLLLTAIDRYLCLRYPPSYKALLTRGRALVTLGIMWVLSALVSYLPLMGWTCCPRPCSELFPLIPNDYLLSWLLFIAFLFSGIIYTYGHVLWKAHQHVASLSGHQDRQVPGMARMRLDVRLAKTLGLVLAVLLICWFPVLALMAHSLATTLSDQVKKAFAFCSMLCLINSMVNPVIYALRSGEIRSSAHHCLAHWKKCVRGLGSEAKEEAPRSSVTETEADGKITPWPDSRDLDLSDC
Protocol: Compounds of the present disclosure were tested for CB1 receptor binding affinity and for CB2 receptor binding affinity. As used herein, “binding affinity” is represented by the IC50 value, which was experimentally determined as described herein. The lower the IC50 value the higher the binding affinity. A compound of the present disclosure may be said to have “binding selectivity” if it has a higher binding affinity for one receptor compared to the other.
The membranes were prepared from CHO-K1 (Chinese hamster ovary) cells stably transfected with the human CB2 receptor (Cat. #ES-111-C; Perkin Elmer, Boston, MA). The cells were grown adherently and maintained in Ham's F12 medium containing 10% fetal bovine serum (FBS), penicillin, streptomycin and geneticin (G418) at 37° C. in a humid atmosphere of 5% CO2 following the manufacturer's instructions.
For membrane preparation the cells were washed with PBS and scraped off the plates in cold homogenization buffer (25 mM HEPES (pH 7.4), 2 mM EDTA) containing protease inhibitor cocktail (Sigma Cat. #P8340). The cell suspension was homogenized with a Pro-PK-01200D Polytron Homogenizer (Pro Scientific) and then centrifuged for 30 min at 120,000×g. The supernatant was discarded and the pellet was re-suspended in the homogenization buffer and stored at −80° C. until the time of use.
In this experiment, 3H radiolabeled CP 55,940, i.e. [3H]CP 55,940 (Perkin Elmer, Boston, MA), was used as a radioligand for the CB2 receptor to determine the binding affinity of compounds for the CB2 receptor (Scheme 7; above).
The competition binding experiments (single dose and dose-response) were performed by incubating 0.6 nM of [3H]CP55,940 (specific activity 101 Ci/mmol, Perkin Elmer) and different concentrations of compounds disclosed herein with membranes prepared as above from CHO-K1 cells expressing human CB2 receptor (1 μg of protein/well), 50 mM Tris-HCl (pH 7.4), 5 mM MgCl2, 1 mM CaCl2, and 2 mg/mL BSA.
For the single dose experiments, the compound stocks (usually 10 mM in DMSO) were diluted to working stocks in the binding buffer to give the final compound concentrations of 10 μM and 1 μM. For the dose-response experiments the test compounds were sequentially diluted to provide the desired concentration range for the IC50 determination. In each case the compounds were pre-incubated with the membrane for 20 min, before adding the radioligand.
After incubation with the radioligand for 60 min at 37° C., the incubation was terminated by rapid filtration of assay mixture through MultiScreen®HTS^+ 96-well filter plates (Millipore, Cat. #MSFCNXB), pre-soaked for 60 min with 50 mM Tris-HCl (pH 7.4) containing 0.33% polyethylenimine (PEI). The nonspecific binding (NSB) was determined in the presence of 10 μM unlabelled CP55,940. After drying the filter plate at 50° C. for at least 60 min, the filter-bound radioactivity was determined by scintillation spectrometry using the 1450 MicroBeta Plate Counter (Perkin Elmer, Boston, MA). From the dose-response experiments, the IC50 values were determined (see Table 1, CB2 IC50).
Where the test compound had about the same affinity for both receptors, this is represented by a value of 1.00 in the column for both receptors.

[3] = 0.8 nM [3H]CP 55,940, membranes from CHO-K1 cells expressing human CB1 receptor, dose-response, read-out: CB1 IC50
[4] = 0.6 nM [3H]CP55,940, membranes from CHO-K1 cells expressing human CB2 receptor, dose-response, read-out: CB2 IC50

T1 sequence (P21554 whole entry): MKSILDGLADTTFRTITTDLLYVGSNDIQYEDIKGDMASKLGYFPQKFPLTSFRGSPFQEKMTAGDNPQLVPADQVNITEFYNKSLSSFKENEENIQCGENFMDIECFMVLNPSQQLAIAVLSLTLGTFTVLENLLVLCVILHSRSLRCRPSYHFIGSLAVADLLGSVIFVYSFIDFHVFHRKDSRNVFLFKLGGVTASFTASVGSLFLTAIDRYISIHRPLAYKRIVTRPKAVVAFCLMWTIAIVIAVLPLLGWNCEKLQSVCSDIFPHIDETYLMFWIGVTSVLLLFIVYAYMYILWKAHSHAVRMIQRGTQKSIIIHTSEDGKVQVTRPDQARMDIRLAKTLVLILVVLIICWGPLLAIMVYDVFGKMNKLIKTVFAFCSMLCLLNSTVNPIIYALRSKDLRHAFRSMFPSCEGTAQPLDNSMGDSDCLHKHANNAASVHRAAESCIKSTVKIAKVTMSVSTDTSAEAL

SMILES	pIC50 [1]	pIC50 [2]	Selectivity CB2 [2] [fold]	pIC50 [1, 3]	pIC50 [2, 4]
CCCCCc1cc(O)c(C/C=C(\C)CCC=C(C)C)c(O)c1S(=O)(=O)NC [Compound 20, 3-(3,7-dimethylocta-2,6-dien-1-yl)-2,4-dihydroxy-N-methyl-6-pentylbenzenesulfonamide]	< 6.00	6.31 to 7.00	3.93	–	–
CCCCCc1cc(O)c(C/C=C(\C)CCC=C(C)C)c(O)c1S(=O)(=O)N1CCOCC1 [Compound 28, 2-(3,7-dimethylocta-2,6-dien-1-yl)-4-(morpholinosulfonyl)-5-pentylbenzene-1,3-diol]	–	–	266.67	6.00 to 6.30	> 7.00
CCCCCc1cc(O)c(C/C=C(\C)CCC=C(C)C)c(O)c1S(C)(=O)=O [Compound 3, 2-(3,7-dimethylocta-2,6-dien-1-yl)-4-(methylsulfonyl)-5-pentylbenzene-1,3-diol]	–	–	1.47	< 6.00	6.00 to 6.30
CCCCCc1cc(O)c(C/C=C(\C)CCC=C(C)C)c(O)c1S(=O)(=O)Oc1ccccc1 [Compound 67, phenyl-3-(3,7-dimethylocta-2,6-dien-1-yl)-2,4-dihydroxy-6-pentylbenzenesulfonate]	–	–	20.83	< 6.00	6.31 to 7.00
C=CCNS(=O)(=O)c1c(CCCCC)cc(O)c(C/C=C(\C)CCC=C(C)C)c1O [Compound 65, N-allyl-3-(3,7-dimethylocta-2,6-dien-1-yl)-2,4-dihydroxy-6-pentylbenzenesulfonamide]	–	–	25.50	< 6.00	> 7.00
CCCCCc1cc(O)c(C/C=C(\C)CCC=C(C)C)c(O)c1C(=O)NS(=O)(=O)c1ccccc1 [Compound 58, 3-(3,7-dimethylocta-2,6-dien-1-yl)-2,4-dihydroxy-6-pentyl-N-(phenylsulfonyl)benzamide]	–	–	1.88	< 6.00	< 6.00
CCCCCCNS(=O)(=O)c1c(CCCCC)cc(O)c(C/C=C(\C)CCC=C(C)C)c1O [Compound 64, 3-(3,7-dimethylocta-2,6-dien-1-yl)-N-hexyl-2,4-dihydroxy-6-pentylbenzenesulfonamide]	–	–	7.89	< 6.00	6.31 to 7.00
CCCCCc1cc(O)c(C/C=C(\C)CCC=C(C)C)c(O)c1S(=O)(=O)Nc1ccccc1 [Compound 24, 3-(3,7-dimethylocta-2,6-dien-1-yl)-2,4-dihydroxy-6-pentyl-N-phenylbenzenesulfonamide]	–	–	61.50	6.31 to 7.00	> 7.00
CCCCCc1cc(O)c(C/C=C(\C)CCC=C(C)C)c(O)c1S(=O)(=O)NC1CCCCC1 [Compound 62, N-cyclohexyl-3-(3,7-dimethylocta-2,6-dien-1-yl)-2,4-dihydroxy-6-pentylbenzenesulfonamide]	–	–	9.04	< 6.00	6.31 to 7.00
CCCCCc1cc(O)c(C/C=C(\C)CCC=C(C)C)c(O)c1S(=O)(=O)NC1CCC1 [Compound 63, N-cyclobutyl-3-(3,7-dimethylocta-2,6-dien-1-yl)-2,4-dihydroxy-6-pentylbenzenesulfonamide]	–	–	24.80	< 6.00	> 7.00
CCCCCc1cc(O)c(C/C=C(\C)CCC=C(C)C)c(O)c1C(=O)NS(=O)(=O)c1cccnc1 [Compound 66, 3-(3,7-dimethylocta-2,6-dien-1-yl)-2,4-dihydroxy-6-pentyl-N-(pyridin-3-ylsulfonyl)benzamide]	–	–	1.88	< 6.00	< 6.00
CCCCCc1cc(O)c(C/C=C(\C)CCC=C(C)C)c(O)c1S(=O)(=O)NC(C)C [Compound 23, 3-(3,7-dimethylocta-2,6-dien-1-yl)-2,4-dihydroxy-N-isopropyl-6-pentylbenzenesulfonamide]	–	–	18.43	< 6.00	6.31 to 7.00

Source: patent US12084407B2, “Cannabigerol derivatives and use thereof as cannabinoid receptor modulators” (CANOPY GROWTH CORPORATION, priority 2019, dated 2024)
